Assay results: patent publication US8669291B2, “Phenyl substituted cycloalkylamines as monoamine reuptake inhibitors” (Sunovion Pharmaceuticals Inc., priority 2007, dated 2014)

Tests used:
[1] = system: rats; experiment: Rat Forced Swim Test; format: in vivo; settings: PO
Description: The method, which detects antidepressant activity, followed that described by Porsolt et al (Eur. J. Pharmacol., 47: 379-391 (1978)) and modified by Lucki et al. (Psychopharm, 121: 66-72 (1995)). Rats forced to swim in a situation from which they cannot escape rapidly become immobile. Antidepressants decrease the duration of immobility. […] Selective NE reuptake inhibitors decrease immobility by increasing climbing behaviors whereas selective 5-HT reuptake inhibitors decrease immobility by increasing swimming behaviors.
Rats were individually placed in a cylinder (Height=40 cm; Diameter=20 cm) containing 22 cm water (25° C.) for 15 minutes on the first day of the experiment (Session 1) and were then put back in the water 24 hours later for a 5 minute test (Session 2). The sessions were videotaped and duration of immobility as well as swimming and climbing behaviors during the 5 minute test were measured. Twelve rats were tested in each group. The test was performed blind. Compounds were typically evaluated at 3 doses (1-30 mg/kg), administered orally 2 times: 24 hours and 30-60 minutes before the test (Session 2), and compared with a vehicle control group. Desipramine (20 mg/kg i.p.), administered under the same experimental conditions, was used as the positive reference substance.
Data were analyzed by one way analysis of variance (ANOVA) followed by post-hoc comparisons where appropriate. An effect will be considered significant if p<0.05. Data are represented as the mean and standard error to the mean (s.e.m.).

[2] = biological target: T1, DA Transporter (DAT) (Mus musculus, UniProt Q61327); experiment: ex vivo [3H] WIN 35428 binding to DAT sites in mouse brain; settings: mice, 60 minutes after treatment
T1 construct: Striatal membranes (200 μL; equivalent to 2 mg wet weight of tissue/tube); from tissue; host or cells: striatum of C57BL/6 mice
Protocol: Receptor occupancy of central noradrenaline (NA), 5-HT and dopamine (DA) transporter sites following peripheral administration of compounds was determined using [^3H] nisoxetine, [^3H] citalopram and [^3H] WIN 35428 binding, respectively. Liquid scintillation counting was used to quantify the radioactivity.
C57BL/6 mice (25-30 g) were dosed orally with either vehicle or compound at 4 dose levels. Mice were sacrificed 60 minutes after treatment. Whole brains were removed and cortex and striata dissected out before being frozen on dry ice. The brain tissue was stored at −20° C. until the day of the assay. The cortex from each hemisphere was frozen separately. One was used to determine occupancy of NA transporter sites and the other occupancy of 5-HT transporter sites. Striatum was used to determine occupancy of DA transporter sites.
Frontal cortex from each hemisphere or striata was homogenized individually in ice-cold assay buffer using a tight fitting glass/Teflon homogenizer and used immediately in the binding assay.
Striatal membranes (200 μL; equivalent to 2 mg wet weight of tissue/tube) were incubated with 25 μL of [^3H] WIN 35428 at a single concentration of 24 nM and either 25 μL of buffer (total binding) or 25 μL of GBR12935 (1 μM; non-specific binding) for 2 h at 4° C. For each animal, two tubes were used for the determination of total binding and two tubes for the determination of non-specific binding.
Membrane bound radioactivity was recovered by filtration under vacuum through Skatron 11731 filters, presoaked in 0.5% PEI, using a Skatron cell harvester. Filters were rapidly washed with ice-cold phosphate buffer and radioactivity (dpm) was determined by liquid scintillation counting (1 mL Packard MV Gold scintillator).
A value for specific binding (dpm) was generated by the subtraction of mean non-specific binding (dpm) from mean total binding (dpm) for each animal. Data are presented as mean specific binding (dpm) and as a percentage of the vehicle-treated control taken as 100%.

[3] = system: reserpinized rat; experiment: reserpine-treated rat Parkinson's disease model; format: in vivo
Protocol: The effects of compound 4 alone and in combination with L-DOPA were evaluated in the reserpine-treated rat Parkinson's disease model. The method, which detects antiparkinson activity (reversal of motor deficits and akinesia), follows that described by Johnston et al. (Exp Neurol, 191, 243-250, 2005). Eighteen hours prior to behavioural testing, rats were lightly anaesthetized with isoflurane and reserpine (3 mg/kg, sc) was injected along with saline (50 ml/kg) to prevent dehydration.
Accelerating Rotarod: Performance on an accelerating rotarod was assessed using a 4-station rat rotarod (MedAssociates, USA). The speed of rotation of the rotarod was increased from 3.5 to 35 rpm over 5 minutes and the time for which the animal remained on the rod determined as the mean of three trials.
Catalepsy Test: Catalepsy was assessed by placing the rat's forepaws on top of a horizontal wooden rod suspended 6 cm above the bench surface. Time taken to remove both paws from the rod was recorded, up to a maximum of 120 seconds. Three trials per animal were conducted.
Open Field: Activity in an open field arena was assessed using automated activity monitors (Linton Instrumentation, UK). Rats were placed in the activity boxes and locomotor activity was recorded over a 240 minute period.
Drug Administration: For the monotherapy experiment, the effects of 5 different treatments were assessed: 1) vehicle (sterile water, PO), 2) 3 mg/kg compound 4 (PO), 3) 10 mg/kg compound 4 (PO), 4) 30 mg/kg compound 4 and 5) 80 mg/kg (IP) of the positive reference substance, L-DOPA (80 mg/kg). In the combination experiment, 5 different treatments were assessed: 1) compound 4 vehicle (PO)+L-DOPA vehicle (IP), 2) compound 4 (10 mg/kg, PO)+L-DOPA vehicle (IP), 3) compound 4 vehicle (PO)+L-DOPA (30 mg/kg, IP), 4) compound 4 (10 mg/kg, PO)+L-DOPA (30 mg/kg, IP) and 5) compound 4 vehicle (PO)+L-DOPA (80 mg/kg, IP). Treatments were given in a randomized fashion and each animal received all treatment conditions. Compound 4 was administered 60 minutes prior to behavioral assessment and L-DOPA was administered immediately prior to behavioral testing.

T1 sequence (Q61327 whole entry): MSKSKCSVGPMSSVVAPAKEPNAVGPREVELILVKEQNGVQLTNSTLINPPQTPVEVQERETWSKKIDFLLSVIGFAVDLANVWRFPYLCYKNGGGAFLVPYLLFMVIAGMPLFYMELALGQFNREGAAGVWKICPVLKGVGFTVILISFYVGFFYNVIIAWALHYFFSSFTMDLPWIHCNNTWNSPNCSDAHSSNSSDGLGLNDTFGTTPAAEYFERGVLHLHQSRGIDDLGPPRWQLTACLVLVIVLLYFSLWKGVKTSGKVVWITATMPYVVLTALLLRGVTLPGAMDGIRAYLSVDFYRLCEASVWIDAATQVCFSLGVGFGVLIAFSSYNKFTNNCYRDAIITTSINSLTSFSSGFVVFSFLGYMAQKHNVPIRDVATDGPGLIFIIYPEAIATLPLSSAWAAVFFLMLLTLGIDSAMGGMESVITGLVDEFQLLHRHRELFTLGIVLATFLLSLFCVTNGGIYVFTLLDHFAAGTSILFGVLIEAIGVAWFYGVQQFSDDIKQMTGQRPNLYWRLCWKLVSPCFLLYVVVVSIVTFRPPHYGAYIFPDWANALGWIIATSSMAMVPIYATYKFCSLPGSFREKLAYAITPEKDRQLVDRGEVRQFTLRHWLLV

For CN(C)C[C@@H]1CCCC[C@@]1(O)c1ccc(Cl)c(Cl)c1 (single isomer, unassigned) [Compound 2, cis-1-(3,4-dichlorophenyl)-2-((dimethylamino)methyl)cyclohexanol], the “Rat Forced Swim (Means ± S.E.M.) Climbing” value ([1]; 1 mg/kg) was “## (11-20 (##))”, the “Rat Forced Swim (Means ± S.E.M.) Immobility” value ([1]; 1 mg/kg) was “+++ (>41 (+++))” and the “Rat Forced Swim (Means ± S.E.M.) Swimming” value ([1]; 1 mg/kg) was “* (1-5 (*))”. The “Rat Forced Swim (Means ± S.E.M.) Climbing” value ([1]; 3 mg/kg) was “# (1-10 (#))”, the “Rat Forced Swim (Means ± S.E.M.) Immobility” value ([1]; 3 mg/kg) was “+++ (>41 (+++))” and the “Rat Forced Swim (Means ± S.E.M.) Swimming” value ([1]; 3 mg/kg) was “* (1-5 (*))”. For the same molecule, the “Rat Forced Swim (Means ± S.E.M.) Climbing” value ([1]; 10 mg/kg) was “### (>21 (###))”, the “Rat Forced Swim (Means ± S.E.M.) Immobility” value ([1]; 10 mg/kg) was “+ (1-20 (+))” and the “Rat Forced Swim (Means ± S.E.M.) Swimming” value ([1]; 10 mg/kg) was “** (6-9 (**))”. The “% Transporter Occupancy, DAT” value ([2]; 1 mg/kg PO) was 15%, the “% Transporter Occupancy, DAT” value ([2]; 3 mg/kg PO) was 50% and the “% Transporter Occupancy, DAT” value ([2]; 10 mg/kg PO) was 79%. For the same molecule, the “% Transporter Occupancy, DAT” value ([2]; 30 mg/kg PO) was 90%.
With CNC[C@@H]1CCCC[C@@]1(O)c1ccc(Cl)c(Cl)c1 [Compound 4] the “effects of combination with low dose L-DOPA compared with higher L-DOPA dose (80 mg/kg), rotarod” value ([3]; 10 mg/kg, PO + L-DOPA 30 mg/kg, FIG. 5) was “equal in magnitude and of longer duration”, the “baseline locomotor activity (open field) performance” value ([3]; alone, 3-30 mg/kg, PO, FIG. 2) was “dose-dependently improved performance” and the rotarod performance ([3]; alone, 3-30 mg/kg, PO, FIG. 3) was “dose-dependently improved performance”. The catalepsy performance ([3]; alone, 3-30 mg/kg, PO, FIG. 4) was “dose-dependently improved performance”.
